In patent US20240100065A1, “METHODS FOR TREATING RECEPTOR-INTERACTING PROTEIN KINASE 1-MEDIATED DISEASES” (Genzyme Corporation, priority 2022, published 2024):

Experiment: Safety and tolerability (TEAEs, PCSAs, laboratory tests) in phase 1 study Parts 1a, 1b, 2
Format: in vivo, healthy adult participants (human)
Conditions: for ALT increase: Part 1b 10 mg
Procedure: This single ascending dose (SAD) study consisted of three parts: Part 1a, which is a phase 1, randomized, placebo-controlled, double-blind, sequential ascending single dose study; Part 1b, which is phase 1, open-label, sequential single dose study; and Part 2, which is an ascending 14-day repeated oral dose study.
Part 1a evaluated 4 sequential ascending dose levels of Compound 1 under fasted conditions: 10 mg, 20 mg, 30 mg, and 40 mg, each dose per cohort. Participants were fasted overnight for at least 8 hours before the morning dose and 2 hours after dosing.
Part 1b is an open-label study with two single dose levels of Compound 1, previously tested for safety/tolerability in SAD cohorts of Part 1a, were selected (10 mg and 40 mg) and sequentially administered under a fed condition, each dose per cohort. Participants were fasted overnight for at least 8 hours, and then fed with a light breakfast approximately 30 minutes before Compound 1 dosing. In both Part 1a and 1b, all participants received one single dose of treatment.
Part 2 was a randomized, double-blind, placebo-controlled study that evaluated 14-day multiple ascending oral doses of Compound 1 once daily (OD) or twice daily (BID) regimen under fasted conditions: 10 mg QD, 20 mg QD, 15 mg BID, and 20 mg BID. Participants fasted overnight for at least 8 hours before the morning dose and 2 hours after dosing on Day 1 and Day 14. All other morning doses were administered after an overnight fast and approximately 30 minutes before a breakfast snack. Sentinel dosing approach was followed where two of ten participants in each cohort were dosed the first day (n=1, Compound; n=1, placebo) in advance of the full cohort. The remaining 8 participants from each cohort were randomized to receive either Compound or placebo (randomized 7:1) on the following days with at least 48-hour interval from dosing of the sentinel participants, allowing a safety evaluation at the predicted steady state.
Safety and tolerability were assessed by physical examination, neurological examination, monitoring adverse events (AEs) and potentially clinically significant abnormalities (PCSAs) in clinical laboratory tests (hematology, clinical chemistry, and urinalysis), vital signs (body temperature, blood pressure and heart rate), and ECG parameters (heart rate, RR, PR, QRS, QT, QTcF, QTcB intervals) measured in the standard 12-lead ECG or ECGs extracted from 24-hour Holter ECG data.
Safety population included all participants who received at least one dose of study intervention (Compound 1 or placebo). All safety assessments (AEs, laboratory parameters, vital signs) were based on the review of individual values and were summarized using descriptive statistics. Safety analysis was focused on treatment-emergent period, defined as the time from the first investigational medicinal product (IMP) administration up to the end of study visit (included). AEs were coded according to the Medical Dictionary for Regulatory Activities (MedDRA, version 23.1 in Part 1a and Part 1b; version 24 in Part 2). Severity was graded from Grade 1 to 4 according to the Food and Drug Administration (FDA) Guidance for Industry. Number (%) of participants experiencing TEAEs and potentially clinically significant abnormality (PCSAs) in clinical chemistry, vital signs, and ECGs were summarized by dose level group.

SMILES: CC(C)(C(=O)N1CCOc2c(C#N)cncc2C1)C(F)F [Compound 1, 4-(3,3-difluoro-2,2-dimethyl-propanoyl)-3,5-dihydro-2H-pyrido[3,4-f] [1,4]oxazepine-9-carbonitrile]
- TEAE Eye disorders, participants (Part 1a single 40 mg fasted): 0 n
- TEAE Fatigue, participants (Part 1a single 40 mg fasted): 0 n
- TEAE General disorders and administration site conditions, participants (Part 1a single 40 mg fasted): 1 n
- TEAE Headache, participants (Part 1a single 40 mg fasted): 0 n
- TEAE Investigations, participants (Part 1a single 40 mg fasted): 0 n
- TEAE Keratitis, participants (Part 1a single 40 mg fasted): 0 n
- TEAE Medical device site dermatitis, participants (Part 1a single 40 mg fasted): 0 n
- TEAE Musculoskeletal and connective tissue disorders, participants (Part 1a single 40 mg fasted): 1 n
- TEAE Myalgia, participants (Part 1a single 40 mg fasted): 1 (16.7) n
- TEAE Nervous system disorders, participants (Part 1a single 40 mg fasted): 1 n
- TEAE Presyncope, participants (Part 1a single 40 mg fasted): 0 n
- TEAE Skin and subcutaneous tissue disorders, participants (Part 1a single 40 mg fasted): 1 n
- TEAE Skin irritation, participants (Part 1a single 40 mg fasted): 0 n
- TEAE Tachycardia, participants (Part 1a single 40 mg fasted): 0 n
- TEAE Thrombophlebitis, participants (Part 1a single 40 mg fasted): 0 n
- TEAE Vascular disorders, participants (Part 1a single 40 mg fasted): 0 n
- TEAE Ventricular extrasystoles, participants (Part 1a single 40 mg fasted): 1 n
- TEAE Vessel puncture site hypoaesthesia, participants (Part 1a single 40 mg fasted): 1 n
- TEAE Vessel puncture site pain, participants (Part 1a single 40 mg fasted): 1 n
- PCSAs (hematology, clinical chemistry, vital signs, ECG), relevance (Part 1a, all Compound 1 groups): not clinically relevant
- Participants with at least one TEAE (Part 1a, all Compound 1 groups, out of 24): 9 participants
- SAEs or AESIs (Part 1a, single 10-40 mg fasted): no SAEs or AESIs
- ALT increase (one participant, Day 2): 1.5 fold ULN
- ALT increase (one participant, Day 7 (end-of-study visit)): 2.4 fold ULN
- Participants with at least one TEAE (Part 1b overall, out of 12): 10 participants
- Any Grade ≥3 TEAE, participants (Part 1b single 10 mg fed): 0 n
- Any TEAE, participants (Part 1b single 10 mg fed): 4 n
- Any treatment-emergent AESI, participants (Part 1b single 10 mg fed): 1 n
- Any treatment-emergent SAE, participants (Part 1b single 10 mg fed): 0 n
- TEAE Alanine aminotransferase increased, participants (Part 1b single 10 mg fed): 1 n
- TEAE Back pain, participants (Part 1b single 10 mg fed): 1 n
- TEAE Cerebrospinal fluid leakage, participants (Part 1b single 10 mg fed): 1 n
- TEAE Coccydynia, participants (Part 1b single 10 mg fed): 0 n
- TEAE Constipation, participants (Part 1b single 10 mg fed): 0 n
- TEAE Dizziness, participants (Part 1b single 10 mg fed): 0 n
- TEAE Gastrointestinal disorders, participants (Part 1b single 10 mg fed): 1 n
- TEAE Headache, participants (Part 1b single 10 mg fed): 3 n
- TEAE Investigations, participants (Part 1b single 10 mg fed): 1 n
- TEAE Musculoskeletal and connective tissue disorders, participants (Part 1b single 10 mg fed): 1 n
- TEAE Nausea, participants (Part 1b single 10 mg fed): 1 n
- TEAE Nervous system disorders, participants (Part 1b single 10 mg fed): 4 n
- TEAE Polyuria, participants (Part 1b single 10 mg fed): 0 n
- TEAE Radiculopathy, participants (Part 1b single 10 mg fed): 0 n
- TEAE Renal and urinary disorders, participants (Part 1b single 10 mg fed): 0 n
- TEAE Vomiting, participants (Part 1b single 10 mg fed): 1 n
- Any Grade ≥3 TEAE, participants (Part 1b single 40 mg fed): 1 n
- Any TEAE, participants (Part 1b single 40 mg fed): 6 n
- Any treatment-emergent AESI, participants (Part 1b single 40 mg fed): 0 n
- Any treatment-emergent SAE, participants (Part 1b single 40 mg fed): 1 n
- TEAE Alanine aminotransferase increased, participants (Part 1b single 40 mg fed): 0 n
- TEAE Back pain, participants (Part 1b single 40 mg fed): 2 n
- TEAE Cerebrospinal fluid leakage, participants (Part 1b single 40 mg fed): 3 (50.0) n
- TEAE Coccydynia, participants (Part 1b single 40 mg fed): 1 n
- TEAE Constipation, participants (Part 1b single 40 mg fed): 1 n
- TEAE Dizziness, participants (Part 1b single 40 mg fed): 1 n
- TEAE Gastrointestinal disorders, participants (Part 1b single 40 mg fed): 2 n
- TEAE Headache, participants (Part 1b single 40 mg fed): 4 n
- TEAE Investigations, participants (Part 1b single 40 mg fed): 0 n
- TEAE Musculoskeletal and connective tissue disorders, participants (Part 1b single 40 mg fed): 2 n
- TEAE Nausea, participants (Part 1b single 40 mg fed): 1 n
- TEAE Nervous system disorders, participants (Part 1b single 40 mg fed): 5 n
- TEAE Polyuria, participants (Part 1b single 40 mg fed): 1 n
- TEAE Radiculopathy, participants (Part 1b single 40 mg fed): 1 n
- TEAE Renal and urinary disorders, participants (Part 1b single 40 mg fed): 1 n
- TEAE Vomiting, participants (Part 1b single 40 mg fed): 1 n
- PCSAs (vital signs, ECG), relevance (Part 1b, all Compound 1 groups): not clinically relevant
- Any Grade ≥3 TEAE, participants (Part 2 10 mg QD 14 days): 0 n
- Any TEAE, participants (Part 2 10 mg QD 14 days): 4 n
- Any treatment-emergent AESI, participants (Part 2 10 mg QD 14 days): 0 n
- Any treatment-emergent SAE, participants (Part 2 10 mg QD 14 days): 0 n
- TEAE Nervous system disorders, participants (Part 2 10 mg QD, out of 8): 2 participants
- Any Grade ≥3 TEAE, participants (Part 2 15 mg BID 14 days): 0 n
- Any TEAE, participants (Part 2 15 mg BID 14 days): 6 n
- Any treatment-emergent AESI, participants (Part 2 15 mg BID 14 days): 1 n
- Any treatment-emergent SAE, participants (Part 2 15 mg BID 14 days): 0 n
- ALT increase (AESI) (Part 2 15 mg BID, one participant, Day 9): 2.29 ULN
- ALT increase (AESI), highest (Part 2 15 mg BID, one participant, Day 15, 24 hours post last dosing): 2.71 ULN
- TEAE Nervous system disorders, participants (Part 2 15 mg BID, out of 8): 1 participants
- Any Grade ≥3 TEAE, participants (Part 2 20 mg BID 14 days): 0 n
- Any TEAE, participants (Part 2 20 mg BID 14 days): 4 n
- Any treatment-emergent AESI, participants (Part 2 20 mg BID 14 days): 0 n
- Any treatment-emergent SAE, participants (Part 2 20 mg BID 14 days): 0 n
- TEAE Nervous system disorders, participants (Part 2 20 mg BID, out of 8): 2 participants
- Any Grade ≥3 TEAE, participants (Part 2 20 mg QD 14 days): 0 n
- Any TEAE, participants (Part 2 20 mg QD 14 days): 3 n
- Any treatment-emergent AESI, participants (Part 2 20 mg QD 14 days): 0 n
- Any treatment-emergent SAE, participants (Part 2 20 mg QD 14 days): 0 n
- TEAE Nervous system disorders, participants (Part 2 20 mg QD, out of 8): 1 participants
- SAE and severe TEAE (Grade ≥3) (Part 2, 14-day repeated doses): no serious adverse event (SAE) and no severe treatment-emergent adverse event
- PCSAs for vital signs and ECG parameters, relevance (Part 2, all groups): not clinically meaningful
- Safety and tolerability, overall (single dose up to 40 mg fasted and fed, up to 20 mg BID for 14 days): safe and well tolerated
